Laboratory results taken from patent US5744452A, “γ-L-glutamyl containing immunomodulator compounds and methods therewith” (Wei; Edward T., priority 1995, dated 1998).

Key:
murine spleen cells = assay: IL-2 production by Concanavalin A activated murine spleen cells (CTLL-2 cell assay); assay type: cell-based, CBA mice; settings: for IL-2 production by murine spleen cells: Table 2; for interleukin-2 production by murine spleen cells: Table 6
Description: Spleen cells from CBA mice were cultured in tissue culture plates at a 10^6 cells/ml in RPMI-1640 medium supplemented with 10% fetal calf serum, 2 mM L-glutamine, and 80 μg/ml of Gentamycin. 1 μg/ml of Concanavalin A was used to activate basal IL-2 production from murine spleen lymphocytes. Bestim was added to cell cultures at the "0" time. After 36 hours supernatants were collected, centrifuged at 800 xg and IL-2 levels were measured in a CTLL-2 cell assay (Gillis et al., "T-cell Growth Factor: Parameters of Production and Quantitative Assay for Activity," J. Immunol., 120: 2027-2032, 1978). […] However, due to the variations in the method for IL-2 measurements clear dose-response comparisons could not be achieved.
IL-2 production studies have been performed using murine spleen lymphocytes activated with Concanavalin A. Spleen cells from CBA mice were cultured in a tissue culture plates at a 1×10^6 /ml concentration in RPMI-1640 medium supplemented with 10% fetal calf serum, 2 mM L-glutamine,80 μg/ml Gentamycin and 1 μg/ml Concanavalin A as an inducer of basal level IL-2 synthesis. Bestim at various concentration was added to cell cultures at the "0" time. After 36 hours supernatants were collected, centrifuged at 800 xg and used for IL-2 levels determination in a CTLL-2 cell assay (Gillis et al., 1978). IL-2-dependent CTLL-2 cells were grown in RPMI-1640 medium in the presence of 1-2 U/ml recombinant IL-2 as a growth factor. Before assay, cells were washed twice to remove IL-2 from the medium. After this wash tested supernatants were added and cells were incubated for 36 hours. IL-2-induced proliferation was assayed using a ^3 H-thymidine incorporation method.

dogs = assay: Subacute toxicity, repeated intramuscular injection, dogs; assay type: in vivo
Description: To illustrate this point and in preparation for clinical studies, acute and sub-acute toxicity studies were conducted in animals with Bestim according to conditions of good-laboratory practices. Bestim, prepared as a sterile lyophitized powder in ampoules, was dissolved in sterile 0.9% NaCl solution and injected intramuscularly in all experiments.
Subacute Toxicity Studies: In a second set of experiments, Bestim was administered for longer durations, accordingly:
dogs: 1 mg/kg, 10 mg/kg and 100 mg/kg, administered intramuscularly daily for 1 month and for 3 months.

[1] = system: patients with generalized surgical infection; assay: Study in patients with generalized surgical infection; assay type: in vivo, human; settings: for Adhesion (%) / Blast transformation PHA / Blast transformation spont / CD3 (%) / CD4 (%) / CD4/CD8 / CD8 (%) / CD16 (%) / CD72 (%) / Chemilumin luminol (induced) / Chemilumin luminol (spontaneous) / IL-1 production LPS induced / IL-1 production spontaneous / IgA / IgG / IgM / NBT test induced / NBT test spontaneous / TNF production spontaneous / TNF prpoduction LPS induced: surgical infection; for Alanine aminotransferase / Albumin / Asparagine aminotransferase / Band neutrophils (%) / Bilirubin / Creatinin / Hemoglobin / Mature neutrophils (%) / Monocytes (%) / Plasma protein / Urea: surgical patients
Description: (§1) Preliminary studies were conducted to characterize the immunomodulatory properties of Bestim in human subjects. The protocol for the human subjects studies were reviewed and approved by a Hospital Committee (Moscow Hospital N-24) and informed consent was obtained from all subjects. All 62 patients received by intramuscular injection 0.1 mg of Bestim dissolved in 1.5 to 2.0 ml of sterile saline, one injection per day for 5 days. Patients participating in the clinical trials were from 2 groups:
The second group consisted of 28 patients with generalized surgical infection. Bestim was given together with standard antibiotic therapy.
Laboratory measurements (data in Table 8 to 10) were performed one day before and compared to values obtained three days after injection of Bestim.

[2] = system: patient after surgical removal of thymus gland; assay: Case History 3: immunodeficiency caused by surgical removal of the thymus (Patient C); assay type: in vivo, human
Description: Patient C was in the clinic for immunodeficiency caused by surgical removal of the thymus gland. Bestim was administered in the standard 5 daily intramuscular dose of 0.1 mg.

viral hepatitis = assay: Clinical trials in viral hepatitis; assay type: in vivo, human; settings: trials in progress
human subjects = assay: Side-effects in all 62 human subjects; assay type: in vivo; settings: 0.1 mg i.m. per day for 5 days, 62 patients
Description: as §1, with “groups: […]” for “groups:”

[3] = Bestim combined with conventional methods

SMILES: N[C@@H](CCC(=O)N[C@@H](Cc1c[nH]c2ccccc12)C(=O)O)C(=O)O [Bestim, γ-L-glutamyl-L-tryptophan]
- IL-2 production by murine spleen cells (murine spleen cells; peptide 0.001 μg/ml, 36 hours): 159 ± 13
- IL-2 production by murine spleen cells (murine spleen cells; peptide 0.01 μg/ml): 134 ± 8
- IL-2 production by murine spleen cells (murine spleen cells; peptide 0.1 μg/ml): 98 ± 5
- IL-2 production by murine spleen cells (murine spleen cells; peptide 1.0 μg/ml): 157 ± 10
- IL-2 production by murine spleen cells (murine spleen cells; peptide 10 μg/ml): 95 ± 4
- IL-2 production by murine spleen cells (murine spleen cells; peptide 100 μg/ml): 112 ± 3
- interleukin-2 production by murine spleen cells (murine spleen cells; peptide 0.001 μg/ml): 149 ± 2
- interleukin-2 production by murine spleen cells (murine spleen cells; peptide 0.01 μg/ml): 162 ± 4
- interleukin-2 production by murine spleen cells (murine spleen cells; peptide 0.1 μg/ml): 172 ± 9
- interleukin-2 production by murine spleen cells (murine spleen cells; peptide 1.0 μg/ml): 271 ± 11
- interleukin-2 production by murine spleen cells (murine spleen cells; peptide 10 μg/ml): 160 ± 8
- interleukin-2 production by murine spleen cells (murine spleen cells; peptide 100 μg/ml): 186 ± 6
- effect on IL-2 secretion from cells (murine spleen cells; conclusion from Table 2): enhances IL-2 secretion from cells at low doses
- macroscopic and histological examination of organs (dogs; dogs, 1, 10 and 100 mg/kg i.m. daily for 1 and 3 months): no significant changes
- local inflammatory reactions at the site of injection (dogs; dogs, repeated i.m. injection): no local inflammatory reactions at the site of injection
- clinical improvement [1, 3]: more rapid clinical improvement
- duration of the patient's stay in the clinic [1, 3]: decreased the duration of the patient's stay in the clinic
- Adhesion (%) ([1]; Bestim After): 41 ± 3%
- Blast transformation PHA ([1]; Bestim After): 8935 ± 780
- Blast transformation spont ([1]; Bestim After): 541 ± 48
- CD3 (%) ([1]; Bestim After): 65 ± 5%
- CD4 (%) ([1]; Bestim After): 40 ± 3%
- CD4/CD8 ([1]; Bestim After): 1.92 ± 0.17
- CD8 (%) ([1]; Bestim After): 22 ± 2%
- CD16 (%) ([1]; Bestim After): 10.7 ± 2.1%
- CD72 (%) ([1]; Bestim After): 4.0 ± 0.5%
- Chemilumin luminol (induced) ([1]; Bestim After): 5063 ± 431
- Chemilumin luminol (spontaneous) ([1]; Bestim After): 1427 ± 252
- IL-1 production LPS induced ([1]; Bestim After): 1601 ± 284
- IL-1 production spontaneous ([1]; Bestim After): 588 ± 201
- IgA ([1]; Bestim After): 2.2 ± 0.1 g/L
- IgG ([1]; Bestim After): 9.7 ± 0.9 g/L
- IgM ([1]; Bestim After): 1.2 ± 0.1 g/L
- NBT test induced ([1]; Bestim After): 144 ± 17
- NBT test spontaneous ([1]; Bestim After): 77 ± 11
- TNF production spontaneous ([1]; Bestim After): 286 ± 27
- TNF prpoduction LPS induced ([1]; Bestim After): 338 ± 81
- Adhesion (%) ([1]; Bestim Before): 32 ± 3%
- Blast transformation PHA ([1]; Bestim Before): 4563 ± 524
- Blast transformation spont ([1]; Bestim Before): 435 ± 53
- CD3 (%) ([1]; Bestim Before): 35 ± 5%
- CD4 (%) ([1]; Bestim Before): 25 ± 4%
- CD4/CD8 ([1]; Bestim Before): 2.09 ± 0.30
- CD8 (%) ([1]; Bestim Before): 15 ± 2%
- CD16 (%) ([1]; Bestim Before): 6.2 ± 1.1%
- CD72 (%) ([1]; Bestim Before): 4.1 ± 0.6%
- Chemilumin luminol (induced) ([1]; Bestim Before): 2943 ± 307
- Chemilumin luminol (spontaneous) ([1]; Bestim Before): 1008 ± 90
- IL-1 production LPS induced ([1]; Bestim Before): 1014 ± 157
- IL-1 production spontaneous ([1]; Bestim Before): 481 ± 166
- IgA ([1]; Bestim Before): 2.4 ± 0.4 g/L
- IgG ([1]; Bestim Before): 10.6 ± 1.5 g/L
- IgM ([1]; Bestim Before): 1.2 ± 0.2 g/L
- NBT test induced ([1]; Bestim Before): 111 ± 15
- NBT test spontaneous ([1]; Bestim Before): 79 ± 12
- TNF production spontaneous ([1]; Bestim Before): 134 ± 55
- TNF prpoduction LPS induced ([1]; Bestim Before): 370 ± 64
- Alanine aminotransferase ([1]; Bestim After): 18 ± 3 IU/L
- Albumin ([1]; Bestim After): 40 ± 2 g/L
- Asparagine aminotransferase ([1]; Bestim After): 17 ± 3 IU/L
- Band neutrophils (%) ([1]; Bestim After): 7 ± 1.6%
- Bilirubin ([1]; Bestim After): 7 ± 1 μM/L
- Creatinin ([1]; Bestim After): 98 ± 4 μM/L
- Hemoglobin ([1]; Bestim After): 101 ± 4 g/L
- Mature neutrophils (%) ([1]; Bestim After): 70 ± 1%
- Monocytes (%) ([1]; Bestim After): 3.6 ± 0.7%
- Plasma protein ([1]; Bestim After): 73 ± 3 g/L
- Urea ([1]; Bestim After): 4.0 ± 0.4 mM/L
- Alanine aminotransferase ([1]; Bestim Before): 29 ± 7 IU/L
- Albumin ([1]; Bestim Before): 38 ± 2 g/L
- Asparagine aminotransferase ([1]; Bestim Before): 30 ± 9 IU/L
- Band neutrophils (%) ([1]; Bestim Before): 12 ± 2%
- Bilirubin ([1]; Bestim Before): 10 ± 1 μM/L
- Creatinin ([1]; Bestim Before): 117 ± 7 μM/L
- Hemoglobin ([1]; Bestim Before): 98 ± 4 g/L
- Mature neutrophils (%) ([1]; Bestim Before): 76 ± 2%
- Monocytes (%) ([1]; Bestim Before): 3.2 ± 0.5%
- Plasma protein ([1]; Bestim Before): 70 ± 3 g/L
- Urea ([1]; Bestim Before): 5.5 ± 0.3 mM/L
- T-Lymphocytes (CD3) ([2]; After Bestim Therapy): 49%
- Lymphocytes ([2]; After Bestim Therapy (5 daily i.m. 0.1 mg)): 1980 per mm^3
- Lymphocytes ([2]; Before Therapy): 1100 per mm^3
- T-Lymphocytes (CD3) ([2]; Before Therapy): 10%
- signs and symptoms of viral hepatitis (viral hepatitis): ameliorates the signs and symptoms of viral hepatitis
- side-effects (human subjects): No detectable side-effects
